Data reported in patent US11851426B2, “Bicyclic amines as CDK2 inhibitors” (Incyte Corporation, priority 2019, dated 2023).

These compounds were tested against CDK2/Cyclin E1 (Homo sapiens (Human), UniProt P24941) (assay: CDK2/Cyclin E1 HTRF enzyme activity assay). Details: 1 mM ATP; CDK2/Cyclin E1 0.25 nM; 60 minutes at room temperature.
Type: biochemical
Method: Example A. CDK2/Cyclin E1 HTRF Enzyme Activity Assay
CDK2/Cyclin E1 enzyme activity assays utilize full-length human CDK2 co-expressed as N-terminal GST-tagged protein with FLAG-Cyclin E1 in a baculovirus expression system (Carna Product Number 04-165). Assays were conducted in white 384-well polystyrene plates in a final reaction volume of 8 μL. CDK2/Cyclin E1 (0.25 nM) was incubated with the compounds of the Examples (40 nL serially diluted in DMSO) in the presence of ATP (50 μM or 1 mM) and 50 nM ULight™-labeled eIF4E-binding protein 1 (THR37/46) peptide (PerkinElmer) in assay buffer (containing 50 mM HEPES pH 7.5, 1 mM EGTA, 10 mM MgCl2, 2 mM DTT, 0.05 mg/mL BSA, and 0.01% Tween 20) for 60 minutes at room temperature. The reactions were stopped by the addition of EDTA and Europium-labeled anti-phospho-4E-BP1 antibody (PerkinElmer), for a final concentration of 15 mM and 1.5 nM, respectively. HTRF signals were read after 1 hour at room temperature on a PHERAstar FS plate reader (BMG Labtech). Data was analyzed with IDBS XLFit and GraphPad Prism 5.0 software using a three or four parameter dose response curve to determine IC50 for each compound.

Row | SMILES | IC50 [nM]
1 | CS(=O)(=O)N1CCC(Nc2nc3c(OCCC(F)(F)F)c(-c4cn[nH]c4)ncn3n2)CC1 [Example 46, N-(1-(Methylsulfonyl)piperidin-4-yl)-7-(1H-pyrazol-4-yl)-8-(3,3,3-trifluoropropoxy)-[1,2,4]triazolo[1,5-c]pyrimidin-2-amine] | ≤ 20
2 | CCCCOc1c(-c2cn[nH]c2)ncn2nc(NC3CCN(S(C)(=O)=O)CC3)nc12 [Example 47, 8-Butoxy-N-(1-(methylsulfonyl)piperidin-4-yl)-7-(1H-pyrazol-4-yl)-[1.2.4]triazolo[1,5-c]pyrimidin-2-amine] | ≤ 20
3 | CCCOc1c(-c2cn[nH]c2)ncn2nc(NC3CCN(S(C)(=O)=O)CC3)nc12 [Example 48, N-(1-(Methylsulfonyl)piperidin-4-yl)-8-propoxy-7-(1H-pyrazol-4-yl)-[1.2.4]triazolo[1,5-c]pyrimidin-2-amine] | ≤ 20
4 | CS(=O)(=O)N1CCC(Nc2nc3c(N4CCCCC4)c(-c4cn[nH]c4)ncn3n2)CC1 [Example 49, N-(1-(Methylsulfonyl)piperidin-4-yl)-8-(piperidin-1-yl)-7-(1H-pyrazol-4-yl)-[1,2,4]triazolo[1,5-c]pyrimidin-2-amine] | ≤ 20
5 | CC1CN(S(C)(=O)=O)CCC1Nc1nc2c(N3CCCCC3)c(-c3cn[nH]c3)ncn2n1 (stereo not drawn) [Example 50, N-(3-Methyl-1-(methylsulfonyl)piperidin-4-yl)-8-(piperidin-1-yl)-7-(1H-pyrazol-4-yl)-[1,2,4]triazolo[1,5-c]pyrimidin-2-amine] | ≤ 20
6 | COCCN1CCN(c2c(-c3cn[nH]c3)ncn3nc(NC4CCN(S(C)(=O)=O)CC4)nc23)CC1 [Example 51, 8-(4-(2-Methoxyethyl)piperazin-1-yl)-N-(1-(methylsulfonyl)piperidin-4-yl)-7-(1H-pyrazol-4-yl)-[1,2,4]triazolo[1,5-c]pyrimidin-2-amine] | ≤ 20
7 | CS(=O)(=O)N1CCC(Nc2nc3c(N4CCCC4)c(-c4cn[nH]c4)ncn3n2)CC1 [Example 52, N-(1-(Methylsulfonyl)piperidin-4-yl)-7-(1H-pyrazol-4-yl)-8-(pyrrolidin-1-yl)-[1,2,4]triazolo[1,5-c]pyrimidin-2-amine] | ≤ 20
8 | CC(C)Oc1c(-c2cn[nH]c2)ccc2nc(N[C@H]3CCN(S(C)(=O)=O)C[C@H]3C)nn12 [Example 68, 5-Isopropoxy-N-((3R,4S)-3-methyl-1-(methylsulfonyl)piperidin-4-yl)-6-(1H-pyrazol-4-yl)-[1,2,4]triazolo[1,5-a]pyridin-2-amine] | ≤ 20
9 | C[C@@H]1CN(S(C)(=O)=O)CC[C@@H]1Nc1nc2ccc(-c3cn[nH]c3)c(OC3CCC3)n2n1 [Example 69, 5-Cyclobutoxy-N-((3R,4S)-3-methyl-1-(methylsulfonyl)piperidin-4-yl)-6-(1H-pyrazol-4-yl)-[1,2,4]triazolo[1,5-a]pyridin-2-amine] | ≤ 20
10 | CC(C)COc1c(-c2cn[nH]c2)ccc2nc(N[C@H]3CCN(S(C)(=O)=O)C[C@H]3C)nn12 [Example 70, 5-Isobutoxy-N-((3R,4S)-3-methyl-1-(methylsulfonyl)piperidin-4-yl)-6-(1H-pyrazol-4-yl)-[1,2,4]triazolo[1,5-a]pyridin-2-amine] | ≤ 20
11 | CCCOc1c(-c2cn[nH]c2)ccc2nc(N[C@H]3CCN(S(C)(=O)=O)C[C@H]3C)nn12 [Example 71, N-((3R,4S)-3-Methyl-1-(methylsulfonyl)piperidin-4-yl)-5-propoxy-6-(1H-pyrazol-4-yl)-[1,2,4]triazolo[1,5-a]pyridin-2-amine] | ≤ 20
12 | C[C@@H]1CN(S(C)(=O)=O)CC[C@@H]1Nc1nc2ccc(-c3cn[nH]c3)c(OCC(F)F)n2n1 [Example 72, 5-(2,2-Difluoroethoxy)-N-((3R,4S)-3-methyl-1-(methylsulfonyl)piperidin-4-yl)-6-(1H-pyrazol-4-yl)-[1,2,4]triazolo[1,5-a]pyridin-2-amine] | ≤ 20

More lines, now with the values ahead:

Row | IC50 [nM] | SMILES
13 | ≤ 20 | CC(C)Oc1c(-c2cn[nH]c2)ncn2nc(N[C@H]3CCN(S(=O)(=O)C4CC4)C[C@H]3C)nc12 [Example 53, N-((3R,4S)-1-(Cyclopropylsulfonyl)-3-methylpiperidin-4-yl)-8-isopropoxy-7-(1H-pyrazol-4-yl)-[1,2,4]triazolo[1,5-c]pyrimidin-2-amine]
14 | ≤ 20 | CCS(=O)(=O)N1CC[C@H](Nc2nc3c(OC(C)C)c(-c4cn[nH]c4)ncn3n2)[C@H](C)C1 [Example 54, N-((3R,4S)-1-(Ethylsulfonyl)-3-methylpiperidin-4-yl)-8-isopropoxy-7-(1H-pyrazol-4-yl)-[1,2,4]triazolo[1,5-c]pyrimidin-2-amine]
15 | ≤ 20 | CCN(C)CCCS(=O)(=O)N1CC[C@H](Nc2nc3c(OC(C)C)c(-c4cn[nH]c4)ncn3n2)[C@H](C)C1 [Example 55, N-((3R,4S)-1-((3-(Ethyl(methyl)amino)propyl)sulfonyl)-3-methylpiperidin-4-yl)-8-isopropoxy-7-(1H-pyrazol-4-yl)-[1,2,4]triazolo[1,5-c]pyrimidin-2-amine]
16 | ≤ 20 | CC(C)Oc1c(-c2cn[nH]c2)ncn2nc(N[C@H]3CCN(S(=O)(=O)CCCN(C)C)C[C@H]3C)nc12 [Example 56, N-((3R,4S)-1-((3-(Dimethylamino)propyl)sulfonyl)-3-methylpiperidin-4-yl)-8-isopropoxy-7-(1H-pyrazol-4-yl)-[1,2,4]triazolo[1,5-c]pyrimidin-2-amine]
17 | ≤ 20 | CC(C)Oc1c(-c2cn[nH]c2)ncn2nc(N[C@H]3CCN(S(=O)(=O)CCCN(C)C(C)C)C[C@H]3C)nc12 [Example 57, 8-Isopropoxy-N-((3R,4S)-1-((3-(isopropyl(methyl)amino)propyl)sulfonyl)-3-methylpiperidin-4-yl)-7-(1H-pyrazol-4-yl)-[1,2,4]triazolo[1,5-c]pyrimidin-2-amine]
18 | ≤ 20 | CC(C)Oc1c(-c2cn[nH]c2)ncn2nc(N[C@H]3CCN(S(=O)(=O)CCCN4CCCCC4)C[C@H]3C)nc12 [Example 58, 8-Isopropoxy-N-((3R,4S)-3-methyl-1-((3-(piperidin-1-yl)propyl)sulfonyl)piperidin-4-yl)-7-(1H-pyrazol-4-yl)-[1,2,4]triazolo[1,5-c]pyrimidin-2-amine]
19 | ≤ 20 | CC(C)Oc1c(-c2cn[nH]c2)ncn2nc(N[C@H]3CCN(S(=O)(=O)CCCN4CCCC4)C[C@H]3C)nc12 [Example 59, 8-Isopropoxy-N-((3R,4S)-3-methyl-1-((3-(pyrrolidin-1-yl)propyl)sulfonyl)piperidin-4-yl)-7-(1H-pyrazol-4-yl)-[1,2,4]triazolo[1,5-c]pyrimidin-2-amine]
20 | ≤ 20 | CCN(CC)CCCS(=O)(=O)N1CC[C@H](Nc2nc3c(OC(C)C)c(-c4cn[nH]c4)ncn3n2)[C@H](C)C1 [Example 60, N-((3R,4S)-1-((3-(Diethylamino)propyl)sulfonyl)-3-methylpiperidin-4-yl)-8-isopropoxy-7-(1H-pyrazol-4-yl)-[1,2,4]triazolo[1,5-c]pyrimidin-2-amine]
21 | ≤ 20 | CC(C)Oc1c(-c2cn[nH]c2)ncn2nc(N[C@H]3CCN(S(=O)(=O)CCCN4CCN(C)CC4)C[C@H]3C)nc12 [Example 61, 8-Isopropoxy-N-((3R,4S)-3-methyl-1-((3-(4-methylpiperazin-1-yl)propyl)sulfonyl)piperidin-4-yl)-7-(1H-pyrazol-4-yl)-[1,2,4]triazolo[1,5-c]pyrimidin-2-amine]
22 | ≤ 20 | CCN1CCN(CCCS(=O)(=O)N2CC[C@H](Nc3nc4c(OC(C)C)c(-c5cn[nH]c5)ncn4n3)[C@H](C)C2)CC1 [Example 62, N-((3R,4S)-1-((3-(4-Ethylpiperazin-1-yl)propyl)sulfonyl)-3-methylpiperidin-4-yl)-8-isopropoxy-7-(1H-pyrazol-4-yl)-[1,2,4]triazolo[1,5-c]pyrimidin-2-amine]
23 | ≤ 20 | CC(C)Oc1c(-c2cn[nH]c2)ncn2nc(N[C@H]3CCN(S(=O)(=O)CCCCN4CCOCC4)C[C@H]3C)nc12 [Example 63, 8-Isopropoxy-N-((3R,4S)-3-methyl-1-((4-morpholinobutyl)sulfonyl)piperidin-4-yl)-7-(1H-pyrazol-4-yl)-[1,2,4]triazolo[1,5-c]pyrimidin-2-amine]
24 | ≤ 20 | CC(C)Oc1c(-c2cn[nH]c2)ncn2nc(N[C@H]3CCN(S(=O)(=O)CCCCNCC(F)F)C[C@H]3C)nc12 [Example 64, N-((3R,4S)-1-((4-((2,2-Difluoroethyl)amino)butyl)sulfonyl)-3-methylpiperidin-4-yl)-8-isopropoxy-7-(1H-pyrazol-4-yl)-[1,2,4]triazolo[1,5-c]pyrimidin-2-amine]
25 | ≤ 20 | CCN(C)CCCCS(=O)(=O)N1CC[C@H](Nc2nc3c(OC(C)C)c(-c4cn[nH]c4)ncn3n2)[C@H](C)C1 [Example 65, N-((3R,4S)-1-((4-(Ethyl(methyl)amino)butyl)sulfonyl)-3-methylpiperidin-4-yl)-8-isopropoxy-7-(1H-pyrazol-4-yl)-[1,2,4]triazolo[1,5-c]pyrimidin-2-amine]
26 | ≤ 20 | CC(C)Oc1c(-c2cn[nH]c2)ncn2nc(N[C@H]3CCN(S(=O)(=O)CCCCN(C)C)C[C@H]3C)nc12 [Example 66]
27 | ≤ 20 | CC(C)Oc1c(-c2cn[nH]c2)ncn2nc(N[C@H]3CCN(S(=O)(=O)CCCCN4CC[C@@H](C(F)F)C4)C[C@H]3C)nc12 [Example 67, N-((3R,4S)-1-((4-((R)-3-(Difluoromethyl)pyrrolidin-1-yl)butyl)sulfonyl)-3-methylpiperidin-4-yl)-8-isopropoxy-7-(1H-pyrazol-4-yl)-[1,2,4]triazolo[1,5-c]pyrimidin-2-amine]
